# Measurements taken from patent US20260242438A1 (INSTITUTE OF MATERIA MEDICA, CHINESE ACADEMY OF MEDICAL …, priority 2022, published 2026).
# *1 amine or outer side, *2 acyl side, *3 side chain or, on linkers, in order; H or OH if unused. Where a SMILES comes first, the peptide text is derived from it. Bridges are numbered along the chain shown (N, C = ends). The star is where a group is joined. pNA = O=[N+]([O-])c1ccc(N*)cc1; Suc = O=C(CCC(=O)[*:2])[*:1]
# How the values were obtained:
# [1] = test system: Normal ICR mice; experiment: In vivo hypoglycemic activity, subcutaneous administration; conditions: for Glucose (mean ± sd): subcutaneous, 0.9 mg/kg
# Description: Tail tip blood samples were collected at 40 min and 90 min after administration, and blood glucose levels were measured using glucose oxidase method to calculate blood glucose values at each blood sampling time point.
# [2] = target: T1, chymotrypsin (Bos taurus, UniProt P00766); experiment: Determination of the Michaelis constant Km of chymotrypsin hydrolyzing AAPFpNA; assay type: biochemical; conditions: R^2=0.9988, pH 7.8, 37° C.
# Description: (1) Added a total 198 μL of reaction buffer (20 mM CaCl2, 50 mM Tris-HCl (pH 7.8)) into the 96 well plate, followed by preheating at 37° C. for 15 min. Then added 2 μL of different concentrations of substrates (p-Nitroanilide, pNA, 0.5% in DMSO), and mixed by centrifugation at 500 rpm for 1 min. Finally, the plate was incubated at 37° C. for 20 min, and the absorbance value at 405 nm was measured. In the 200 μL of reaction system, the final concentrations of pNA were 0, 0.025, 0.05, 0.075, 0.1, 0.125, 0.15, 0.25, and 0.3 mM, respectively. Make three repetitions for each concentration and plot the OD 405 nm value with pNA concentration to obtain the standard curve. (2) Added a total 190 μL of reaction buffer (20 mM CaCl2, 50 mM Tris-HCl (pH 7.8)) and 8 μL of 0.75 μM chymotrypsin into the 96 well plate, followed by preheating at 37° C. for 5 min. Then added 2 μL of different concentrations of substrates (AAPFpNA, dissolved in DMSO), and mixed by centrifugation at 500 rpm for 1 min. Finally, the plate was incubated at 37° C. for 20 min, and the absorbance value at 405 nm was measured. In the 200 μL of reaction system, the final concentrations of AAPFpNA were 0, 0.125, 0.25, 0.285, 0.33, 0.4, and 0.5 mM, respectively. […]
# Using a certain concentration of chymotrypsin to catalyze different concentrations of AAPFpNA to produce pNA, and the absorbance value of OD 405 nm was measured.
# [3] = target: T1, chymotrypsin; experiment: Determination of enzyme inhibitory activity against chymotrypsin (substrate AAPFpNA, OD 405 nm); assay type: biochemical; conditions: for IC50: chymotrypsin 30 nM, AAPFpNA 0.5 mM, pH 7.8, 37° C.; for remaining activity at 0.001 µM: peptide 0.001 μM; for remaining activity at 0.01 µM: peptide 0.01 μM; for remaining activity at 0.1 µM: peptide 0.1 μM; for remaining activity at 0.2 µM: peptide 0.2 μM; for remaining activity at 0.5 µM: peptide 0.5 μM; for remaining activity at 10 µM: peptide 10 μM; for remaining activity at 100 µM: peptide 100 μM; for remaining activity at 1000 µM: peptide 1000 μM; for remaining activity at 1 µM: peptide 1 μM; for remaining activity at 0.4 µM: peptide 0.4 μM
# Description: The substrates N-succinyl-Ala-Ala-Pro-Phe-p-nitroaniline (AAPFpNA) is used in competitive binding reaction to determine the inhibitory activities against α -chymotrypsin. Experiments for a-chymotrypsin was measured in 20 mM CaCl2, 50 mM Tris-HCl buffer (pH 7.8). The concentration of the peptide was measured using optical density (OD) at 280 nm. The Michaelis constant (Km) of the enzyme hydrolysis substrate is calculated from the initial rate of substrate hydrolysis at 405 nm. The absorbance value of the substrate was measured at 405 nm after complete hydrolysis. All data were processed using nonlinear regression.
# (1) Added a total 190 μL of reaction buffer (20 mM CaCl2, 50 mM Tris-HCl (pH 7.8)), different concentrations of anti-chymorypsin peptides (CHs) into the pre-cold 96 well plate, followed by preheating at 37° C. for 5 min and centrifugated at 500 rpm for 1 min and allowed to stand for 4 minutes. Then added 8 μL of 750 nM chymotrypsin and incubated at 37° C. for 10 min, and centrifugated at 500 rpm for 1 min and allowed to stand for 9 minutes. Finally, added 2 μL of 50 mM AAPFpNA, and mixed by centrifugation at 500 rpm for 1 min. The plate was incubated at 37° C. for 90 min, and the absorbance value at 405 nm was measured. Three repetitions were made, and only reaction buffer and substrate were added in the blank control as the minimum absorption value (Min OD 405 nm); Only reaction buffer, enzyme and substrate were added in the negative control as the maximum absorption value (Max OD 405 nm).
# (2) In the 200 μL of reaction system, the final concentrations of chymotrypsin and AAPFpNA were 30 nM and 0.5 mM, respectively.
# Plotted the residual activity of enzyme with […] to obtain the half inhibitory concentration (IC50) of anti-chymorypsin peptides (CHs). Then, substituted it into the formula […]/(1+S/Km) (S, IC50, and Km were substrate concentration, half inhibitory concentration, and Michaelis constant, respectively) to obtain the inhibition constant Ki of anti-chymorypsin peptides (CHs).
# [4] = read-out: Residual activity of chymotrypsin
Ki [3] [nM],IC50 [3] [nM],"remaining activity at 0.001 µM [3, 4] [%]","remaining activity at 0.01 µM [3, 4] [%]","remaining activity at 0.1 µM [3, 4] [%]","remaining activity at 0.2 µM [3, 4] [%]","remaining activity at 0.5 µM [3, 4] [%]","remaining activity at 10 µM [3, 4] [%]","remaining activity at 100 µM [3, 4] [%]","remaining activity at 1000 µM [3, 4] [%]","remaining activity at 1 µM [3, 4] [%]",Compound,other results
210,480,99.8 ± 2,,97.8 ± 4.4,,48.2 ± 3.6,4.1 ± 2.3,0.1 ± 0.1,0.2,8.9 ± 1.4,CC[C@H](C)[C@@H]1NC(=O)[C@@H]2CCCN2C(=O)[C@@H]2CCCN2C(=O)[C@H]([C@@H](C)CC)NC(=O)[C@H](CO)NC(=O)[C@H](Cc2ccc(O)cc2)NC(=O)[C@H]([C@@H](C)O)NC(=O)[C@H](C)NC(=O)[C@H](CCCNC(=N)N)NC(=O)CNC(=O)[C@@H](N)CSSC[C@@H](C(=O)N[C@@H](Cc2ccccc2)C(=O)N2CCC[C@H]2C(=O)N[C@@H](CC(=O)O)C(=O)O)NC1=O [CH65] (H-CGRATYSIPPICFPD-OH; disulfide 1-12; C-terminus assumed),"remaining activity at 0.25 µM ([3]; peptide 0.25 μM, read-out: Residual activity of chymotrypsin): 89.5 ± 2.9%; remaining activity at 0.75 µM ([3]; peptide 0.75 μM, read-out: Residual activity of chymotrypsin): 11.7 ± 1.4%"
130,300,101.7 ± 0.3,101 ± 0.2,100 ± 2.5,78 ± 4,20.1 ± 6.1,1.3 ± 0.6,0,,12.1 ± 1.1,CC[C@H](C)[C@@H]1NC(=O)[C@@H]2CCCN2C(=O)[C@@H]2CCCN2C(=O)[C@H]([C@@H](C)CC)NC(=O)[C@H](CO)NC(=O)[C@H](Cc2ccc(O)cc2)NC(=O)[C@H]([C@@H](C)O)NC(=O)[C@H](C)NC(=O)[C@H](CCCNC(=N)N)NC(=O)[C@H](CCCCN)NC(=O)[C@@H](N)CSSC[C@@H](C(=O)N[C@@H](Cc2ccccc2)C(=O)O)NC1=O [CH69] (H-CKRATYSIPPICF-OH; disulfide 1-12; C-terminus assumed),"remaining activity at 0.3 µM ([3]; peptide 0.3 μM, read-out: Residual activity of chymotrypsin): 51.5 ± 5.8%"
180,410,101.4 ± 0.6,100.6 ± 1,100.3 ± 0.5,81.7 ± 3.3,,0.8 ± 0.2,0.1 ± 0.1,,20.7 ± 1.3,CC[C@H](C)[C@@H]1NC(=O)[C@@H]2CCCN2C(=O)[C@@H]2CCCN2C(=O)[C@H]([C@@H](C)CC)NC(=O)[C@H](CO)NC(=O)[C@H](Cc2ccccc2)NC(=O)[C@H]([C@@H](C)O)NC(=O)[C@H](C)NC(=O)[C@H](CCCNC(=N)N)NC(=O)CNC(=O)[C@@H](N)CSSC[C@@H](C(=O)N[C@@H](Cc2ccccc2)C(=O)O)NC1=O [CH71] (H-CGRATFSIPPICF-OH; disulfide 1-12; C-terminus assumed),"remaining activity at 0.4 µM [3, 4]: 49.9 ± 6.6%; remaining activity at 0.8 µM ([3]; peptide 0.8 μM, read-out: Residual activity of chymotrypsin): 23.6 ± 1.5%"
230,540,101 ± 1.6,,95.1 ± 2.1,83.1 ± 1.1,,2.2 ± 0.2,0.3 ± 0.1,0.1,27.8 ± 2.5,CC[C@H](C)[C@@H]1NC(=O)[C@@H]2CCCN2C(=O)[C@@H]2CCCN2C(=O)[C@H]([C@@H](C)CC)NC(=O)[C@H](CO)NC(=O)[C@H](Cc2ccccc2)NC(=O)[C@H]([C@@H](C)O)NC(=O)[C@@H](NC(=O)[C@@H](NC(=O)CN)[C@@H](C)O)CSSC[C@@H](C(=O)N[C@@H](CC(N)=O)C(=O)O)NC1=O [CH26] (H-GTCTFSIPPICN-OH; disulfide 3-11; C-terminus assumed),"remaining activity at 0.4 µM [3, 4]: 63.2 ± 4.5%; remaining activity at 5 µM ([3]; peptide 5 μM, read-out: Residual activity of chymotrypsin): 7 ± 0.5%"

# More lines, now with the values behind:
Compound,Ki [3] [nM],IC50 [3] [nM],"remaining activity at 0.001 µM [3, 4] [%]","remaining activity at 0.01 µM [3, 4] [%]","remaining activity at 0.1 µM [3, 4] [%]","remaining activity at 0.2 µM [3, 4] [%]","remaining activity at 0.5 µM [3, 4] [%]","remaining activity at 10 µM [3, 4] [%]","remaining activity at 100 µM [3, 4] [%]","remaining activity at 1000 µM [3, 4] [%]","remaining activity at 1 µM [3, 4] [%]",other results
lispro: insulin analogue lispro synthesized in the present invention,,,,,,,,,,,,"hypoglycemic activity (in words) ([1]; subcutaneous administration, compared with a positive control): good hypoglycemic activity; Glucose (mean ± sd) ([1]; 0 min): 96.7 ± 24.8 mg/dL; Glucose (mean ± sd) ([1]; 40 min): 70.3 ± 6.2 mg/dL; Glucose (mean ± sd) ([1]; 90 min): 72.9 ± 15.6 mg/dL"
"C[C@H](NC(=O)CCC(=O)O)C(=O)N[C@@H](C)C(=O)N1CCC[C@H]1C(=O)N[C@@H](Cc1ccccc1)C(=O)Nc1ccc([N+](=O)[O-])cc1 [AAPFpNA, N-succinyl-Ala-Ala-Pro-Phe-p-nitroaniline] (Suc-AAPF-pNA)",,,,,,,,,,,,Km [2]: 380 µM
CC[C@H](C)[C@@H]1NC(=O)[C@H](CO)NC(=O)[C@H](Cc2ccc(O)cc2)NC(=O)[C@H]([C@@H](C)O)NC(=O)[C@@H](NC(=O)[C@H](C)N)CSSC[C@@H](C(=O)N[C@@H](Cc2ccccc2)C(=O)O)NC(=O)[C@H](CCCCN)NC(=O)[C@H](C)NC(=O)[C@@H]2CCCN2C1=O [CH18] (H-ACTYSIPAKCF-OH; disulfide 2-10; C-terminus assumed),200,470,103.6 ± 0.2,102 ± 3.7,102 ± 2.4,90.3 ± 4.1,49.4 ± 3.7,3.4 ± 0.5,0.3 ± 0.1,0.1 ± 0.1,,"remaining activity at 2.5 µM ([3]; peptide 2.5 μM, read-out: Residual activity of chymotrypsin): 3.7 ± 0.5%"
CC[C@H](C)[C@@H]1NC(=O)[C@@H]2CCCN2C(=O)[C@@H]2CCCN2C(=O)[C@H]([C@@H](C)CC)NC(=O)[C@H](CO)NC(=O)[C@H](Cc2ccc(O)cc2)NC(=O)[C@H]([C@@H](C)O)NC(=O)[C@@H](NC(=O)[C@@H](N)CCCCN)CSSC[C@@H](C(=O)N[C@@H](Cc2ccccc2)C(=O)O)NC1=O [CH64] (H-KCTYSIPPICF-OH; disulfide 2-10; C-terminus assumed),400,930,,,,,,,,,,
